Measurements taken from publication PMC5318888, “SAMHD1 enhances nucleoside-analogue efficacy against HIV-1 in myeloid cells” (Scientific Reports, 2017).

What was measured:
HIV-1-GFP [1] = assay: microbe, parasite or virus in culture; type: cell-based
Method: (§1) H9 and Jurkat cells (6 × 10^5 cells/mL) were treated with increasing concentrations of nucleoside analogues (0–200 μM; except CFB, 0–1.6 μM) and incubated for 4 h at 37 °C in 5% CO2. Cells were then infected with HIV-1-GFP by spinoculation at 800 × g for 90 min in the presence of 1 μg/mL polybrene, and further incubated at 37 °C in 5% CO2 for 72 h. Undifferentiated U937 and THP-1 (PMA^−) cells (6 × 10^5 cells/mL) were treated with increasing concentrations of nucleoside analogues (0–200 μM; except CFB, 0–1.6 μM) and incubated at 37 °C in 5% CO2 for 48 h. Cells were then infected with HIV-1-GFP by spinoculation at 800 × g for 90 min in the presence of 1 μg/mL polybrene, and further incubated at 37 °C in 5% CO2 for 72 h. Non-dividing U937 and THP-1 (PMA^+) cells (6 × 10^5 cells/mL) were differentiated by addition of 100 nM PMA (PMA^+) for 48 h and treated with increasing concentrations of nucleoside analogues as described above. Cells were then infected with HIV-1-GFP in the presence of 1 μg/mL polybrene and further incubated at 37 °C in 5% CO2 for 72 h. The percentage of GFP^+cells was determined by one-colour flow cytometry using a Fortessa X20 analyser (BD Biosciences) and the data analysed using the FlowJo software suite.
(§2) Non-ambiguous values were subjected to a replicate test to calculate confidence intervals of 95% (95% CI). CC50 and EC50 values were determined for at least two independent experiments for each nucleoside analogue and a selectivity index (SI) also calculated, (SI = CC50/EC50). EC50 values for each replicate were used to perform an unpaired two-tailed t-test to determine significant differences between U937 cells expressing SAMHD1 wt or HD206-7AA mutant and THP-1 cells expressing Vpx or untransduced cells. P values of <0.005 were considered statistically significant.

in vitro = type: cell-based; conditions: human
Method: (§3) H9, Jurkat and undifferentiated U937 and THP-1 (PMA^−) cells (6 × 10^5 cells/mL) were treated with increasing concentrations of nucleoside analogues (0–200 μM; except CFB, 0–1.6 μM) and incubated at 37 °C in 5% CO2 for 48 h. Medium was then replaced and cells were further incubated for 72 h. Non-dividing U937 and THP-1 (PMA^+) cells (6 × 10^5 cells/mL) were differentiated by addition of 100 nM phorbol-12-myristate-13-acetate (PMA^+) for 48 h and then treated with increasing concentrations of nucleoside analogues as described above. The percentage of live cells was determined by flow cytometry using Live/Dead fixable blue-fluorescent dyes (Invitrogen) and a Fortessa X20 analyser (BD Biosciences). Data were analysed using the FlowJo software suite.
as §2, with “The cytotoxic concentration of nucleoside analogue that inhibits cell viability by 50% (CC50) and the effective concentration of nucleoside analogue that inhibits infection of cells by 50% (EC50) were calculated for each independent experiment by non-linear regression using GraphPad Prism v6.00 for Windows (GraphPad Software, San Diego, CA). Non-ambiguous” for “Non-ambiguous”

HIV-1-GFP [2] = assay: Anti-HIV-1 activity in THP-1 cells with or without Vpx transduction; type: cell-based
Method: (§4) Antiviral assays were further performed in monocytoid cells transduced with YFP-expressing VLPs containing WT SAMHD1, HD206-7AA or Vpx. Briefly, U937 cells (6 × 10^5 cells/mL) were transduced with WT SAMHD1-YFP or HD206-7AA-YFP VLPs by spinoculation at 800 × g for 90 min in the presence of 1 μg/mL polybrene. Similarly, THP-1 cells (6 × 10^5 cells/mL) were transduced with Vpx-YFP VLPs by spinoculation at 800 × g for 90 min in the presence of 1 μg/mL polybrene. Cells were incubated at 37 °C in 5% CO2 and after 72 h, PMA^+ cells (6 × 10^5 cells/mL) were treated with 100 nM PMA and PMA^− cells (7.5 × 10^4 cells/mL) were left untreated. Cells were then incubated at 37 °C in 5% CO2 for 48 h. Nucleoside analogues were added at increasing concentrations (0–200 μM; except CFB, 0–1.6 μM) and cells were further incubated for 48 h. PMA^− cells were then infected with HIV-1-GFP by spinoculation at 800 × g for 90 min in the presence of 1 μg/mL polybrene, PMA^+ cells were infected with HIV-1-GFP in the presence of 1 μg/mL polybrene only. Cells were incubated for 72 h at 37 °C in 5% CO2 and then analysed by two-colour flow cytometry using a Fortessa X20 analyser (BD Biosciences). Data were analysed using the FlowJo software suite.
as §2, with “The cytotoxic concentration of nucleoside analogue that inhibits cell viability by 50% (CC50) and the effective concentration of nucleoside analogue that inhibits infection of cells by 50% (EC50) were calculated for each independent experiment by non-linear regression using GraphPad Prism v6.00 for Windows (GraphPad Software, San Diego, CA). Non-ambiguous” for “Non-ambiguous”

[3] = Cytotoxicity, live cells by flow cytometry, THP-1 cells (PMA−/PMA+); type: cell-based; conditions: human
Method: as §3
as §2, with “The cytotoxic concentration of nucleoside analogue that inhibits cell viability by 50% (CC50) and the effective concentration of nucleoside analogue that inhibits infection of cells by 50% (EC50) were calculated for each independent experiment by non-linear regression using GraphPad Prism v6.00 for Windows (GraphPad Software, San Diego, CA). Non-ambiguous” for “Non-ambiguous”

THP-1 cells = assay: as above; type: cell-based; conditions: human, 48 h
Method: as §3
as §2, with “The cytotoxic concentration of nucleoside analogue that inhibits cell viability by 50% (CC50) and the effective concentration of nucleoside analogue that inhibits infection of cells by 50% (EC50) were calculated for each independent experiment by non-linear regression using GraphPad Prism v6.00 for Windows (GraphPad Software, San Diego, CA). Non-ambiguous” for “Non-ambiguous”

[4] = Cytotoxicity, live cells by flow cytometry, U937 cells (PMA−/PMA+); type: cell-based; conditions: human
Method: as §3
as §2, with “The cytotoxic concentration of nucleoside analogue that inhibits cell viability by 50% (CC50) and the effective concentration of nucleoside analogue that inhibits infection of cells by 50% (EC50) were calculated for each independent experiment by non-linear regression using GraphPad Prism v6.00 for Windows (GraphPad Software, San Diego, CA). Non-ambiguous” for “Non-ambiguous”

U937 cells = assay: as above; type: cell-based; conditions: human, 48 h
Method: as §3
as §2, with “The cytotoxic concentration of nucleoside analogue that inhibits cell viability by 50% (CC50) and the effective concentration of nucleoside analogue that inhibits infection of cells by 50% (EC50) were calculated for each independent experiment by non-linear regression using GraphPad Prism v6.00 for Windows (GraphPad Software, San Diego, CA). Non-ambiguous” for “Non-ambiguous”

[5] = Cytotoxicity, live cells by flow cytometry, Jurkat cells; type: cell-based; conditions: human
Method: as §3
as §2, with “The cytotoxic concentration of nucleoside analogue that inhibits cell viability by 50% (CC50) and the effective concentration of nucleoside analogue that inhibits infection of cells by 50% (EC50) were calculated for each independent experiment by non-linear regression using GraphPad Prism v6.00 for Windows (GraphPad Software, San Diego, CA). Non-ambiguous” for “Non-ambiguous”

[6] = Cytotoxicity, live cells by flow cytometry, H9 cells; type: cell-based; conditions: human
Method: as §3
as §2, with “The cytotoxic concentration of nucleoside analogue that inhibits cell viability by 50% (CC50) and the effective concentration of nucleoside analogue that inhibits infection of cells by 50% (EC50) were calculated for each independent experiment by non-linear regression using GraphPad Prism v6.00 for Windows (GraphPad Software, San Diego, CA). Non-ambiguous” for “Non-ambiguous”

HIV-1-GFP [7] = assay: Anti-HIV-1 activity in U937 cells transduced with wt SAMHD1 or HD206-7AA mutant; type: cell-based
Method: as §4
as §2, with “The cytotoxic concentration of nucleoside analogue that inhibits cell viability by 50% (CC50) and the effective concentration of nucleoside analogue that inhibits infection of cells by 50% (EC50) were calculated for each independent experiment by non-linear regression using GraphPad Prism v6.00 for Windows (GraphPad Software, San Diego, CA). Non-ambiguous” for “Non-ambiguous”

SAMHD1 = target: T1, SAMHD1 (Homo sapiens, UniProt Q9Y3Z3); parameters: method as in PMID 25331707; conditions: previous in vitro assays; cited from earlier work
T1 construct: The final concentrations were 100 nM SAMHD1(115–626), 10 nM Ppx1; strep-tag; made in house

HIV-1-GFP [8] = assay: microbe, parasite or virus in culture; type: cell-based; remark: listed apart in the source
Method: as §1, with “Cells” for “H9 and Jurkat cells (6 × 10^5 cells/mL) were treated with increasing concentrations of nucleoside analogues (0–200 μM; except CFB, 0–1.6 μM) and incubated for 4 h at 37 °C in 5% CO2. Cells”, “Undifferentiated U937 and THP-1 (PMA^−) cells (6 × 10^5 cells/mL) were treated with increasing concentrations of nucleoside analogues (0–200 μM; except CFB, 0–1.6 μM) and incubated at 37 °C in 5% CO2 for 48 h.” left out
as §2

[9] = Human immunodeficiency virus 1, THP-1, read-out: EC50 [95% CI], THP1 PMA+
[10] = Human immunodeficiency virus 1, THP-1, read-out: EC50 [95% CI], THP1 PMA−
[11] = Human immunodeficiency virus 1, U-937, read-out: EC50 [95% CI], U937 PMA+
[12] = Human immunodeficiency virus 1, U-937, read-out: EC50 [95% CI], U937 PMA−
[13] = Human immunodeficiency virus 1, THP-1, read-out: EC50 [95% CI], THP1 PMA+, Vpx+
[14] = Human immunodeficiency virus 1, THP-1, read-out: EC50 [95% CI], THP1 PMA+, Vpx−
[15] = Human immunodeficiency virus 1, THP-1, read-out: EC50 [95% CI], THP1 PMA−, Vpx+
[16] = Human immunodeficiency virus 1, THP-1, read-out: EC50 [95% CI], THP1 PMA−, Vpx−
[17] = Human immunodeficiency virus 1, U-937, read-out: EC50 [95% CI], U937 PMA+, HD206/7AA+ population
[18] = Human immunodeficiency virus 1, U-937, read-out: EC50 [95% CI], U937 PMA+, SAMHD1+ population
[19] = Human immunodeficiency virus 1, U-937, read-out: EC50 [95% CI], U937 PMA−, HD206/7AA+ population
[20] = Human immunodeficiency virus 1, U-937, read-out: EC50 [95% CI], U937 PMA−, SAMHD1+ population

T1 sequence (Q9Y3Z3 115-626): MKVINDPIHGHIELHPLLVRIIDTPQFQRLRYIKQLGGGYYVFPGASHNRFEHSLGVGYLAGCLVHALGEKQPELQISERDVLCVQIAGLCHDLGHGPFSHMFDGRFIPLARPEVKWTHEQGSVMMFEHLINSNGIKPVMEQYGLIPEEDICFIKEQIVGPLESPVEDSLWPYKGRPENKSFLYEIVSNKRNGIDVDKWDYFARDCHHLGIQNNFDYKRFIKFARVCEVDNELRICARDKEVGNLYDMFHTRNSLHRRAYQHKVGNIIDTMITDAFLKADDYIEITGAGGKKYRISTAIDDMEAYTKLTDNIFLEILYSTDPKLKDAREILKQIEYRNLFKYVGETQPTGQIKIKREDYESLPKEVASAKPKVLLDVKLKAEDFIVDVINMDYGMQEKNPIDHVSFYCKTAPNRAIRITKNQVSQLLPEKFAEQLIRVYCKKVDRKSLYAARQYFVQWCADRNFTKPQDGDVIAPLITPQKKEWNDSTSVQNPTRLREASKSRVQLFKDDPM

Row | Compound | EC50 (HIV-1-GFP [1]; [9]) [nM] | EC50 (HIV-1-GFP [1]; [10]) [nM] | EC50 (HIV-1-GFP [1]; [11]) [nM] | EC50 (HIV-1-GFP [1]; [12]) [nM] | fold increase of anti-HIV-1 activity in PMA+ over PMA− cells (HIV-1-GFP [1]; THP-1) [fold] | SI, selectivity index CC50/EC50 (HIV-1-GFP [1]; THP-1 PMA+) | SI, selectivity index CC50/EC50 (HIV-1-GFP [1]; THP-1 PMA−) | SI, selectivity index CC50/EC50 (HIV-1-GFP [1]; U937 PMA+) | SI, selectivity index CC50/EC50 (HIV-1-GFP [1]; U937 PMA−) | EC50 (HIV-1-GFP [2]; [13]) [nM] | EC50 (HIV-1-GFP [2]; [14]) [nM] | EC50 (HIV-1-GFP [2]; [15]) [nM] | EC50 (HIV-1-GFP [2]; [16]) [nM] | Fold (EC50 Vpx+ vs Vpx−) (HIV-1-GFP [2]; THP1 PMA+) [fold] | Fold (EC50 Vpx+ vs Vpx−) (HIV-1-GFP [2]; THP1 PMA−) [fold] | CC50 at 48 h [5] [nM] | CC50 at 48 h [6] [nM] | EC50 (HIV-1-GFP [7]; [17]) [nM] | EC50 (HIV-1-GFP [7]; [18]) [nM] | EC50 (HIV-1-GFP [7]; [19]) [nM] | also measured
1 | Nc1nc(NC2CC2)c2ncn([C@H]3C=C[C@@H](CO)C3)c2n1 [ABC] | 31 | 493 | 7470 | 14100 | 16 | > 6452 | > 406 | > 27 | > 14 | 7050 | 38 | 622 | 459 | 187 | 1 | > 200000 | > 200000 | 7060 | 173 | 22100 | CC50 at 48 h (in vitro): > 200000 nM; CC50 at 48 h [3]: > 200000 nM; CC50 (THP-1 cells): > 200000 nM; CC50 at 48 h [4]: > 200000 nM; CC50 (U937 cells): > 200000 nM; EC50 (HIV-1-GFP [7]; [20]): 17500 nM; Fold (EC50 HD206/7AA vs SAMHD1) (HIV-1-GFP [7]; U937 PMA+): 41 fold; Fold (EC50 HD206/7AA vs SAMHD1) (HIV-1-GFP [7]; U937 PMA−): 1 fold
2 | Nc1nc2c(ncn2COCCOP(=O)(O)OP(=O)(O)OP(=O)(O)O)c(=O)[nH]1 [ACV-TP, Aciclovir triphosphate] | – | – | – | – | – | – | – | – | – | – | – | – | – | – | – | – | – | – | – | – | allosteric activation of SAMHD1 (SAMHD1): allosteric activator of SAMHD1 with comparable efficiency to GTP; hydrolysis by SAMHD1 (substrate) (SAMHD1): non-hydrolysable
3 | Nc1nc(Cl)nc2c1ncn2[C@@H]1O[C@H](CO)[C@@H](O)[C@@H]1F [CFB, 2-chloro-9-(2′-Deoxy-2′-fluoro-beta-D-arabinofuranosyl)adenine] | 3 | 132 | 37 | 119 | 44 | > 533 | < 1 | > 43 | < 1 | 12 | 3 | > 1600 | 340 | 4 | >5 | 49 | 31 | 29 | 1.3 | 108 | fold increase of anti-HIV-1 activity in PMA+ over PMA− cells (HIV-1-GFP [1]; U937): 3 fold; EC50 (HIV-1-GFP [7]; [20]): 138 nM; Fold (EC50 HD206/7AA vs SAMHD1) (HIV-1-GFP [7]; U937 PMA+): 22 fold; Fold (EC50 HD206/7AA vs SAMHD1) (HIV-1-GFP [7]; U937 PMA−): 1 fold; SI, selectivity index CC50/EC50 (HIV-1-GFP [8]; H9 cells): < 1; EC50 (HIV-1-GFP [8]; Human immunodeficiency virus 1, H9, read-out: EC50 anti-HIV-1, H9 cells): 94 nM; EC50 (HIV-1-GFP [8]; Human immunodeficiency virus 1, Jurkat, read-out: EC50 anti-HIV-1, Jurkat cells): 663 nM; SI, selectivity index CC50/EC50 (HIV-1-GFP [8]; Jurkat cells): < 1
